Reference: US20220176084A1, “MEDICAL DEVICE WITH DRUG-ELUTING COATING ON MODIFIED DEVICE SURFACE” (Bard Peripheral Vascular, Inc., priority 2019, published 2022)
Blank lines part the entries; values can stand above or below the compound they belong to.

Columns and labels:
[1] = stability under ethylene oxide sterilization, heating and aging; reaction with paclitaxel; details: for reaction with paclitaxel: ethylene oxide sterilization, heating, aging
[2] = cited from earlier work
[3] = drug absorption by tissue after brief balloon deployment; type: in vivo; details: formulated with paclitaxel; 0.2-2 minutes of deployment
Description: Some of the surfactants described herein are very stable under heating. They survive an ethylene oxide sterilization process.
When the chemical compounds described herein are formulated with paclitaxel, a top coat layer may be advantageous in order to prevent premature drug loss during the device delivery process before deployment at the target site, since hydrophilic small molecules sometimes release drug too easily. The chemical compounds herein rapidly elute drug off the balloon during deployment at the target site.
Mixtures or combinations of a surfactant and a water-soluble small molecule confer the advantages of both additives. The water insoluble drug often has a poor compatibility with highly water-soluble chemical compounds, and the surfactant improves compatibility. […] The surfactant reduces drug loss during transit to a target site. The water-soluble chemical compound improves the release of drug off the balloon and absorption of the drug in the tissue.

albumin = albumin (Homo sapiens, UniProt P02768); details: share of protein binding; cited from earlier work
Chain of albumin (P02768 25-609): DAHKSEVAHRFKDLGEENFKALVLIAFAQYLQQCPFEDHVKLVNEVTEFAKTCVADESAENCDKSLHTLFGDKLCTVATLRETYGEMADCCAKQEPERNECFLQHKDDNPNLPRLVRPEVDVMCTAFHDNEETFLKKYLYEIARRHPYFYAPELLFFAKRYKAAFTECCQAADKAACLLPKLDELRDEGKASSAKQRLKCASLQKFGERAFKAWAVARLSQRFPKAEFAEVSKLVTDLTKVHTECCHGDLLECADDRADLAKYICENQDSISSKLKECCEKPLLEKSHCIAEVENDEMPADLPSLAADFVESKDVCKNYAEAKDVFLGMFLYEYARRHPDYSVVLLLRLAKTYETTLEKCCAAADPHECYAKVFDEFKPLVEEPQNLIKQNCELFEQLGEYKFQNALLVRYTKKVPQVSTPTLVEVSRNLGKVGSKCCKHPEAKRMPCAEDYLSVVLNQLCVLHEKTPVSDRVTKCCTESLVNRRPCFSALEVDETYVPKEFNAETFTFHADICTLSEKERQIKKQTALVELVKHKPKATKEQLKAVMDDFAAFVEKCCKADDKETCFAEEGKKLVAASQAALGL

protein = details: cited from earlier work
[4] = octanol/water; cited from earlier work

- reaction with paclitaxel [1]: reacted with paclitaxel
Compound: O=C1O[C@H]([C@@H](O)CO)C(O)=C1O [ascorbic acid]

Compound: NC(=O)c1cccnc1 [niacinamide]
- water and ethanol solubility ([2]; in words): very high

- drug absorption by tissue / drug levels in tissue [3]: unexpectedly high
Compound: O=C1O[C@H](CO)[C@@H](O)[C@H]1O [ribonic acid lactone]

Compound: Cc1ncc(C[n+]2csc(CCO)c2C)c(N)n1 [thiamine]
- water and ethanol solubility ([2]; in words): very high

Compound: CO[C@H]1C[C@@H]2CC[C@@H](C)[C@@](O)(O2)C(=O)C(=O)N2CCCC[C@H]2C(=O)O[C@H]([C@H](C)C[C@@H]2CC[C@@H](O)[C@H](OC)C2)CC(=O)[C@H](C)/C=C(\C)[C@@H](O)[C@@H](OC)C(=O)[C@H](C)C[C@H](C)/C=C/C=C/C=C/1C [rapamycin]
- protein bound primarily to albumin (albumin): 97%
- protein bound (protein): 92%

Compound: PEG-20 sorbitan monolaurate [Tween 20]
- log P [4]: about 3.0

Compound: CC(=O)O[C@H]1C(=O)[C@@]2(C)[C@H]([C@H](OC(=O)c3ccccc3)[C@]3(O)C[C@H](OC(=O)[C@H](O)[C@@H](NC(=O)c4ccccc4)c4ccccc4)C(C)=C1C3(C)C)[C@]1(OC(C)=O)CO[C@@H]1C[C@@H]2O [paclitaxel, reference compound]
- increase of solubility in PBS with the addition of BSA ([2]; PBS, BSA added): over 20 fold

- drug absorption by tissue / drug levels in tissue [3]: unexpectedly high
Compound: O=C1O[C@H](CO)[C@@H](O)[C@H](O)[C@H]1O [gluconolactone]

Compound: O=C(O)/C=C\C(=O)O [maleic acids]
- water and ethanol solubility ([2]; in words): very high

Compound: O=C(O)c1ccccc1 [benzoic acid]
- reaction with paclitaxel [1]: reacted with paclitaxel
- stability under ethylene oxide sterilization, heating, and aging process ([1]; experimentally): not stable

Compound: Sudan Red
- solubility in aqueous solvent ([2]; in words): insoluble

Compound: COc1ccc(O)c(C(C)(C)C)c1 [Butylated hydroxyanisole (BHA), Butylated hydroxyanisole]
- log P [4]: 1.31

- reaction with paclitaxel [1]: reacted with paclitaxel
Compound: OCCNCCO [diethanolamine]
- survival of ethylene oxide sterilization process [1]: do not necessarily survive
